Entries after “also recorded” stand apart in the source; their conditions may differ. Structures can show the parent of a compound that is named as a salt.

Consider one molecule from patent publication US7566528B2, “Method for the identification and/or validation of receptor tyrosine kinase inhibitors” (Esbatech AG, priority 2003, dated 2009).

Test [1] has as its target T1, human receptor tyrosine kinase PDGFR-β (Homo sapiens, UniProt P09619).
T1 construct: N-terminus of the cytoplasmic domains of c-Met (AA932-1366) and PDGFRβ (AA524-1067); myristoylation signal (membrane anchoring) (N); expressed in transfected cells; host or cells: yeast (S. cerevisiae preferred)
Briefly: Yeast growth restoration assay, cells expressing PDGFR-β (OD 600 nm). The class given is cell-based. As to conditions: 50 μM in the yeast culture; OD 600 nm light scattering; FIG. 3. From the text:
(§1) Selection of specific inhibition of Receptor Tyrosine Kinase activity in yeast.

Test [2] has as its system human receptor tyrosine kinase RET. As to the kind of experiment: Yeast growth restoration assay, cells expressing RET (OD 600 nm). The class given is cell-based. As to conditions: 50 μM in the yeast culture; OD 600 nm light scattering; FIG. 3.
From the text: as §1

T1 sequence (P09619 556-1099): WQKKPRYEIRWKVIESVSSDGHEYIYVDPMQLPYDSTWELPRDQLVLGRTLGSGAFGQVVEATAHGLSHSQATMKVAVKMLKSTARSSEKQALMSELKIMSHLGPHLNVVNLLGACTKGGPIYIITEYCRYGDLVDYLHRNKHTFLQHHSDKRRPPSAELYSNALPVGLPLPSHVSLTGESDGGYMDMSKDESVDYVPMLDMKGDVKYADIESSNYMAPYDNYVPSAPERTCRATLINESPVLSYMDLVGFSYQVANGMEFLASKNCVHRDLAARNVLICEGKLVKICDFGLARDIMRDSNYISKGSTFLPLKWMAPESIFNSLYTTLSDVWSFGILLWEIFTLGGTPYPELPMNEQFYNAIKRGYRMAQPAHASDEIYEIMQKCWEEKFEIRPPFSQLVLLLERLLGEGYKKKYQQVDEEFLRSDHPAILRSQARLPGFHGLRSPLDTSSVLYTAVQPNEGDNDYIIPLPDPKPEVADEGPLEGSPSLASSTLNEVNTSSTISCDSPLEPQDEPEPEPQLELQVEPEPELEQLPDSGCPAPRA

Turning to `Cc1ccc(NC(=O)c2ccc(CN3CCN(C)CC3)cc2)cc1Nc1nccc(-c2cccnc2)n1` [imatinib mesylate], the “restoration of growth of PDGFR-β-expressing yeast cells” value in test [1] is on record as “restore growth under selective conditions; also recorded: specifically restores growth”. Besides, the “restoration of growth of RET-expressing yeast cells” value in test [2] was “not growth of cells expressing RET”.
